US7560458B2, “Triazolopyrimidine derivatives as glycogen synthase kinase 3 inhibitors” (Janssen Pharmaceutica, N.V., priority 2003, dated 2009)

Legend:
GSK3alpha = GSK3alpha (Homo sapiens, UniProt P49840); test: GSK3alpha assay (same as the GSK3beta assay, GSK3alpha 0.25 ng/μl); assay type: biochemical; settings: −log IC50 (M); given as ranges (>8; 7-8; <7); read-out: pIC50 (GSK3alpha) (converted)
Experimental: (§1) GSK3beta assays were performed at room temperature in a 100 μl reaction volume of 25 mM Tris (ph 7.4) containing 10 mM MgCl2.6H2O 1 mM DTT, 0.1 mg/ml BSA, 5% glyceol and containing 5.7 ng/μl GSK3β, 5 μM biotinylated phosphorylated CREB peptide, 1 μM APT, 0.85 μCi/ml ATP-P^33 and a suitable amount of a test compound of formula (I). After one hour, the reaction was terminated by adding 70 μl of Stop mix (0.1 mM APT, 5 mg/ml streptavidin coated PVT SPA bead pH 11.0). The beads to which the phosphorylated CREB peptide is attached were allowed to settle overnight and the radioactivity of the beads was counted in a microtiterplate scintillation counter and compared with the results obtained in a control experiment (without the presence of a test compound) in order to determine the percentage of GSK3β inhibition. The IC50 value, i.e. the concentration (M) of the test compound at which 50% of GSK3β is inhibited, was calculated from the dose response curve obtained by performing the above-described GSKK3β assay in the presence of different amounts of the test compound.
The GSK3alpha assay was performed in the same way as described above for the GSK3beta assay except for the concentration of GSK3alpha which is 0.25 ng/μl.

GSK3β = GSK3β (Homo sapiens, UniProt P49841); test: GSK3beta assay (SPA, biotinylated phosphorylated CREB peptide, ATP-P33); assay type: biochemical; settings: −log IC50 (M); given as ranges (>8; 7-8; <7); read-out: pIC50 (GSK3beta) (converted)
GSK3β, sequence (P49841 whole entry, species assumed): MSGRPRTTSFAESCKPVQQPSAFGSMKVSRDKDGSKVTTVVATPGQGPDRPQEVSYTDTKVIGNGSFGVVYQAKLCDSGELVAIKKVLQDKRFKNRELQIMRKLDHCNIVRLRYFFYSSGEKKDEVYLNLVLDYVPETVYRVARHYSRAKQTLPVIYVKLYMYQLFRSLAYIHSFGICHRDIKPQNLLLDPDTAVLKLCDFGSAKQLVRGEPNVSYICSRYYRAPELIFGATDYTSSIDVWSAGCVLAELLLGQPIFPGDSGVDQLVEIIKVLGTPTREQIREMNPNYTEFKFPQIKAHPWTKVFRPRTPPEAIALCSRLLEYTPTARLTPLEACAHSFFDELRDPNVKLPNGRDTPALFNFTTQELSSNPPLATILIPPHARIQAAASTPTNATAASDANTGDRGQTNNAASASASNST
Experimental: as §1

GSK3alpha, sequence (P49840 whole entry, species assumed): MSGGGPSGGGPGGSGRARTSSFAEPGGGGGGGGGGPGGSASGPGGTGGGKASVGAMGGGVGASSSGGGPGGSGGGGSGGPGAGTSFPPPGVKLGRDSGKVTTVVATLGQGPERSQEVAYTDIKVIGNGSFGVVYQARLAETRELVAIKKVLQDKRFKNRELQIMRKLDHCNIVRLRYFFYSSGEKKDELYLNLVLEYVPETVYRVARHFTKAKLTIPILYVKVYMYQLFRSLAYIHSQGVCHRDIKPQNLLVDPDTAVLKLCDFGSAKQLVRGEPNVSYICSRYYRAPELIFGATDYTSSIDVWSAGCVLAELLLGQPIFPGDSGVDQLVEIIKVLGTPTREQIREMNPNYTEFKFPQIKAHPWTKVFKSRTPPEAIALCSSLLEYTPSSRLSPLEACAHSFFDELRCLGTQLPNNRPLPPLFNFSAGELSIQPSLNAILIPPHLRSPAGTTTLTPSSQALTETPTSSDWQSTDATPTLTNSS

| IC50 (GSK3alpha) [M] | IC50 (GSK3β) [M] | Compound |
| --- | --- | --- |
| < 1e-08 | < 1e-08 | O=C(O)c1ccc(Nc2ncc3nnn(-c4cccc(Br)c4)c3n2)cc1 [Compound 124] |
| < 1e-08 | < 1e-08 | COCc1cccc(-n2nnc3cnc(Nc4ccc(C(=O)N(C)C)cc4)nc32)c1 [Compound 334] |
| < 1e-08 | < 1e-08 | COCc1cccc(Nc2ncc3nnn(-c4cccc(CNC(=O)C5CC5)c4)c3n2)c1 [Compound 201] |
| < 1e-08 | < 1e-08 | CC(=O)NCc1cccc(-n2nnc3cnc(Nc4ccc(C(=O)O)cc4)nc32)c1 [Compound 126] |
| < 1e-08 | < 1e-08 | Fc1cccc(-n2nnc3cnc(Nc4ccc(CNCC(F)(F)F)cc4)nc32)c1 [Compound 306] |
| < 1e-08 | 1e-08 | Oc1cccc(Nc2ncc3nnn(-c4cccc(F)c4)c3n2)c1 [Compound 15] |
| < 1e-08 | < 1e-08 | CS(=O)(=O)Nc1cccc(Nc2ncc3nnn(-c4cccc(S(N)(=O)=O)c4)c3n2)c1 [Compound 58] |
| < 1e-08 | 1e-08 to 1e-07 | Fc1cccc(-n2nnc3cnc(Nc4ccc(OC(F)F)cc4)nc32)c1 [Compound 19] |
| < 1e-08 | < 1e-08 | NC(=O)c1cccc(-n2nnc3cnc(Nc4ccc(C(=O)O)cc4)nc32)c1 [Compound 228] |
| < 1e-08 | 1e-08 | CC(C)CC(=O)NCc1cccc(-n2nnc3cnc(Nc4ccc(C#N)cc4)nc32)c1 [Compound 190] |
| < 1e-08 | < 1e-08 | N#CCc1cccc(-n2nnc3cnc(Nc4cccc(C#N)c4)nc32)c1 [Compound 272] |
| < 1e-08 | < 1e-08 | CNC(=O)c1ccc(Nc2ncc3nnn(-c4cccc(F)c4)c3n2)cc1 [Compound 308] |
| < 1e-08 | < 1e-08 | CC(C)CC(=O)NCc1cccc(-n2nnc3cnc(Nc4cccc(NS(C)(=O)=O)c4)nc32)c1 [Compound 189] |
| < 1e-08 | < 1e-08 | COc1cccc(-n2nnc3cnc(Nc4cccc(S(N)(=O)=O)c4)nc32)c1 [Compound 35] |
| < 1e-08 | 1e-08 to 1e-07 | COCc1cccc(-n2nnc3cnc(Nc4cccc(C(=O)NCCNC(C)=O)c4)nc32)c1 [Compound 149] |
| 1e-08 to 1e-07 | 1e-08 to 1e-07 | COCCOc1cccc(-n2nnc3cnc(Nc4ccc(C(=O)N(C)C)cc4)nc32)c1 [Compound 326] |
| 1e-08 to 1e-07 | 1e-08 to 1e-07 | NS(=O)(=O)c1ccc(Nc2ncc3nnn(-c4cccc(CC(=O)O)c4)c3n2)cc1 [Compound 160] |
| < 1e-08 | < 1e-08 | O=C(NCCO)c1cccc(Nc2ncc3nnn(-c4cccc(F)c4)c3n2)c1 [Compound 101] |
| < 1e-08 | < 1e-08 | COCc1cccc(Nc2ncc3nnn(-c4cccc(CNC(=O)CC(C)C)c4)c3n2)c1 [Compound 188] |
| < 1e-08 | < 1e-08 | N#CCc1cccc(-n2nnc3cnc(Nc4ccc(C(N)=O)cc4)nc32)c1 [Compound 274] |
| < 1e-08 | < 1e-08 | COCC(=O)NCc1cccc(-n2nnc3cnc(Nc4cccc(NS(C)(=O)=O)c4)nc32)c1 [Compound 158] |

| IC50 (GSK3alpha) [M] | IC50 (GSK3β) [M] | Compound |
| --- | --- | --- |
| 1e-08 to 1e-07 | 1e-08 to 1e-07 | O=C(NCc1cccc(-n2nnc3cnc(Nc4ccc(CCO)cc4)nc32)c1)C12CC3CC(CC(C3)C1)C2 [Compound 241] |
| < 1e-08 | 1e-08 to 1e-07 | Cc1cccc(Nc2ncc3nnn(-c4cccc(F)c4)c3n2)c1 [Compound 14] |
| < 1e-08 | < 1e-08 | NS(=O)(=O)c1ccc(Nc2ncc3nnn(-c4ccccc4)c3n2)cc1 [Compound 37] |
| < 1e-08 | 1e-08 to 1e-07 | COCCOc1cccc(-n2nnc3cnc(Nc4ccc(CN)cc4)nc32)c1 [Compound 305] |
| < 1e-08 | 1e-08 to 1e-07 | O=C(NCCO)c1cccc(Nc2ncc3nnn(-c4cccc(CNC(=O)C5CC5)c4)c3n2)c1 [Compound 200] |
| 1e-08 to 1e-07 | 1e-08 to 1e-07 | NCc1cccc(Nc2ncc3nnn(-c4ccccc4)c3n2)c1 [Compound 78] |
| 1e-08 to 1e-07 | 1e-08 to 1e-07 | COCc1cccc(-n2nnc3cnc(Nc4cccc(S(=O)(=O)NCC(N)=O)c4)nc32)c1 [Compound 141] |
| < 1e-08 | 1e-08 | COC(=O)c1cccc(-n2nnc3cnc(Nc4cccc(CNC(C)=O)c4)nc32)c1 [Compound 74] |
| < 1e-08 | < 1e-08 | NS(=O)(=O)c1ccc(Nc2ncc3nnn(-c4cccc(CCO)c4)c3n2)cc1 [Compound 169] |
| < 1e-08 | < 1e-08 | COCc1cccc(Nc2ncc3nnn(-c4cccc(CC#N)c4)c3n2)c1 [Compound 266] |
| < 1e-08 | < 1e-08 | Fc1cccc(-n2nnc3cnc(Nc4cccc(OC(F)(F)F)c4)nc32)c1 [Compound 22] |
| 1e-08 to 1e-07 | 1e-08 to 1e-07 | COCc1cccc(-n2nnc3cnc(Nc4ccc(CCN)cc4)nc32)c1 [Compound 320] |
| < 1e-08 | < 1e-08 | CC(C)CC(=O)NCc1cccc(-n2nnc3cnc(Nc4cccc(C#N)c4)nc32)c1 [Compound 185] |
| 1e-08 to 1e-07 | < 1e-08 | Cn1ccnc1-c1cccc(-n2nnc3cnc(Nc4cccc(C#N)c4)nc32)c1 [Compound 4] |
| < 1e-08 | < 1e-08 | NC(=O)c1cccc(Nc2ncc3nnn(-c4ccccc4)c3n2)c1 [Compound 38] |
| < 1e-08 | < 1e-08 | CC(=O)N(C)c1ccc(Nc2ncc3nnn(-c4cccc(F)c4)c3n2)cc1 [Compound 135] |
| < 1e-08 | < 1e-08 | CCOC(=O)NCc1cccc(-n2nnc3cnc(Nc4cccc(NS(C)(=O)=O)c4)nc32)c1 [Compound 217] |
| < 1e-08 | < 1e-08 | O=C(O)c1ccc(Nc2ncc3nnn(-c4cccc(F)c4)c3n2)cc1O [Compound 136] |
| < 1e-08 | < 1e-08 | CC(=O)Nc1cccc(Nc2ncc3nnn(-c4cccc(F)c4)c3n2)c1 [Compound 11] |
| < 1e-08 | < 1e-08 | NC(=O)c1cccc(Nc2ncc3nnn(-c4cccc(C(N)=O)c4)c3n2)c1 [Compound 39] |
| < 1e-08 | 1e-08 to 1e-07 | COCCOc1cccc(-n2nnc3cnc(Nc4cccc(CNC(=O)OC(C)(C)C)c4)nc32)c1 [Compound 303] |

| IC50 (GSK3alpha) [M] | IC50 (GSK3β) [M] | Compound |
| --- | --- | --- |
| < 1e-08 | < 1e-08 | CNC(=O)c1ccc(Nc2ncc3nnn(-c4cccc(COCCOC)c4)c3n2)cc1 [Compound 327] |
| < 1e-08 | < 1e-08 | CC(=O)NCc1cccc(-n2nnc3cnc(Nc4cccc(S(C)(=O)=O)c4)nc32)c1 [Compound 113] |
| 1e-08 to 1e-07 | 1e-08 to 1e-07 | NS(=O)(=O)c1ccc(Nc2ncc3nnn(-c4cccc(CNC(=O)C56CC7CC(CC(C7)C5)C6)c4)c3n2)cc1 [Compound 243] |
| < 1e-08 | < 1e-08 | N#CCc1cccc(-n2nnc3cnc(Nc4ccc(Cl)cc4)nc32)c1 [Compound 337] |
| < 1e-08 | < 1e-08 | CCOC(=O)NCc1cccc(-n2nnc3cnc(Nc4ccc(C(N)=O)cc4)nc32)c1 [Compound 218] |
| < 1e-08 | < 1e-08 | CC(=O)NCc1cccc(-n2nnc3cnc(Nc4cccc(NC(C)=O)c4)nc32)c1 [Compound 109] |
| < 1e-08 | < 1e-08 | N#CCc1cccc(-n2nnc3cnc(Nc4cccc(CCO)c4)nc32)c1 [Compound 276] |
| < 1e-08 | < 1e-08 | COCC(=O)NCc1cccc(-n2nnc3cnc(Nc4cccc(NC(C)=O)c4)nc32)c1 [Compound 156] |
| < 1e-08 | < 1e-08 | COCc1cccc(-n2nnc3cnc(Nc4cccc(C#N)c4)nc32)c1 [Compound 97] |
| < 1e-08 | < 1e-08 | O=C(O)c1ccc(Nc2ncc3nnn(-c4cccc(CNC(=O)C5CC5)c4)c3n2)cc1Cl [Compound 212] |
| < 1e-08 | < 1e-08 | COCc1cccc(-n2nnc3cnc(Nc4cccc(C(C)O)c4)nc32)c1 (stereo not shown) [Compound 143] |
| < 1e-08 | < 1e-08 | COc1ccc(Nc2ncc3nnn(-c4cccc(CC#N)c4)c3n2)cn1 [Compound 267] |
| < 1e-08 | < 1e-08 | COCCOCc1cccc(-n2nnc3cnc(Nc4ccc(CCO)cc4)nc32)c1 [Compound 289] |
| < 1e-08 | < 1e-08 | CN(C)C(=O)c1ccc(Nc2ncc3nnn(-c4cccc(CCO)c4)c3n2)cc1 [Compound 330] |
| < 1e-08 | 1e-08 to 1e-07 | CC(C)CC(=O)NCc1cccc(-n2nnc3cnc(Nc4cccc(C(=O)NCCO)c4)nc32)c1 [Compound 186] |
| < 1e-08 | 1e-08 to 1e-07 | CC(C)CC(=O)NCc1cccc(-n2nnc3cnc(Nc4ccc(CC(=O)O)cc4)nc32)c1 [Compound 194] |
| < 1e-08 | < 1e-08 | CN(C)C(=O)c1ccc(Nc2ncc3nnn(-c4cccc(CC#N)c4)c3n2)cc1 [Compound 332] |
| < 1e-08 | < 1e-08 | CNC(=O)c1ccc(Nc2ncc3nnn(-c4cccc(CCO)c4)c3n2)cc1 [Compound 329] |
| < 1e-08 | < 1e-08 | NC(=O)c1ccc(Nc2ncc3nnn(-c4cccc(CCO)c4)c3n2)cc1 [Compound 259] |
| < 1e-08 | < 1e-08 | N#CCc1cccc(-n2nnc3cnc(Nc4ccc(CNCC(F)(F)F)cc4)nc32)c1 [Compound 311] |
